Source: ChEMBL document CHEMBL1201862, “PubChem BioAssay data set” (2004)
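Values below derive from 48-hour exposures of cells grown in 96-well plates, with endpoints linearly interpolated between the two concentrations bracketing the appropriate inhibition level. At the GI50, growth is halved.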 The source made the active and inactive calls. No stated cut-off is given here; in the data, active = GI50 up to about 1.1 µM and inactive = higher.

Columns and labels:
Assay in all cases: NCI tumour cell line growth inhibition, 48 h
[1] = test system: 786-0
[2] = test system: A498
[3] = test system: A549
[4] = test system: ACHN
[5] = test system: BT-549
[6] = test system: CAKI-1
[7] = test system: CCRF-CEM
[8] = test system: COLO 205
[9] = test system: DU-145
[10] = test system: EKVX
[11] = test system: HCC 2998
[12] = test system: HCT-116
[13] = test system: HCT-15
[14] = test system: HL-60
[15] = test system: HOP-62
[16] = test system: HOP-92
[17] = test system: HT-29
[18] = test system: Hs-578T
[19] = test system: IGROV-1
[20] = test system: K562
[21] = test system: KM12
[22] = test system: LOX IMVI
[23] = test system: M14
[24] = test system: MCF7
[25] = test system: MDA-MB-231
[26] = test system: MDA-MB-435
[27] = test system: MDA-N
[28] = test system: MOLT-4
[29] = test system: Malme-3M
[30] = test system: NCI-H226
[31] = test system: NCI-H23
[32] = test system: NCI-H460
[33] = test system: NCI-H522
[34] = test system: NCI/ADR-RES
[35] = test system: OVCAR-3
[36] = test system: OVCAR-4
[37] = test system: OVCAR-5
[38] = test system: OVCAR-8
[39] = test system: PC-3
[40] = test system: RXF 393
[41] = test system: SF-268
[42] = test system: SF-295
[43] = test system: SF-539
[44] = test system: SK-MEL-28
[45] = test system: SK-MEL-2
[46] = test system: SK-MEL-5
[47] = test system: SK-OV-3
[48] = test system: SN12C
[49] = test system: SNB-19
[50] = test system: SNB-75
[51] = test system: SR
[52] = test system: SW-620
[53] = test system: T47D
[54] = test system: TK-10
[55] = test system: U-251
[56] = test system: UACC-257
[57] = test system: UACC-62
[58] = test system: UO-31
[59] = test system: RPMI-8226

## CC(C)=CCC[C@@H](C)C1=C(O)C(O)C(C)=C2N=C(c3ccccc3)C(=O)OC21 (some centres undefined)
[1]
  GI50: 7800 nM (inactive)
[2]
  GI50: 2810 nM (inactive)
[3]
  GI50: 2650 nM (inactive)
[4]
  GI50: 2160 nM (inactive)
[5]
  GI50: 2150 nM (inactive)
[6]
  GI50: 2390 nM (inactive)
[7]
  GI50: 2400 nM (inactive)
[8]
  GI50: 9380 nM (inactive)
[9]
  GI50: 4360 nM (inactive)
[10]
  GI50: 8850 nM (inactive)
[11]
  GI50: 6620 nM (inactive)
[12]
  GI50: 4030 nM (inactive)
[13]
  GI50: 2310 nM
[14]
  GI50: 521 nM (active)
[15]
  GI50: 3710 nM (inactive)
[16]
  GI50: 723 nM (active)
[17]
  GI50: 6810 nM (inactive)
[18]
  GI50: 1870 nM (inactive)
[19]
  GI50: 1220 nM (inactive)
[20]
  GI50: 1240 nM (inactive)
[21]
  GI50: 4440 nM (inactive)
[22]
  GI50: 4710 nM (inactive)
[23]
  GI50: 4710 nM (inactive)
[24]
  GI50: 1210 nM (inactive)
[25]
  GI50: 2520 nM (inactive)
[26]
  GI50: 3180 nM (inactive)
[27]
  GI50: 7570 nM (inactive)
[28]
  GI50: > 7410 nM (inactive)
[29]
  GI50: 1140 nM (inactive)
[30]
  GI50: 2880 nM (inactive)
[31]
  GI50: 726 nM (active)
[32]
  GI50: 1190 nM (inactive)
[33]
  GI50: 624 nM (active)
[34]
  GI50: 794 nM (active)
[35]
  GI50: 1240 nM (inactive)
[36]
  GI50: 4410 nM (inactive)
[37]
  GI50: 18100 nM (inactive)
[38]
  GI50: 933 nM (active)
[39]
  GI50: 8360 nM (inactive)
[40]
  GI50: 1350 nM (inactive)
[41]
  GI50: 1530 nM (inactive)
[42]
  GI50: 2420 nM (inactive)
[43]
  GI50: 4330 nM (inactive)
[44]
  GI50: 3070 nM (inactive)
[45]
  GI50: 1610 nM (inactive)
[46]
  GI50: 1290 nM (inactive)
[47]
  GI50: 1120 nM (inactive)
[48]
  GI50: 1430 nM (inactive)
[49]
  GI50: 3330 nM (inactive)
[50]
  GI50: 3700 nM (inactive)
[51]
  GI50: > 9840 nM (inactive)
[52]
  GI50: 3160 nM (inactive)
[53]
  GI50: 1210 nM (inactive)
[54]
  GI50: 1900 nM (inactive)
[55]
  GI50: 1570 nM (inactive)
[56]
  GI50: 2880 nM (inactive)
[57]
  GI50: 1070 nM (active)
[58]
  GI50: 5220 nM (inactive)

## CCOC(=O)C1=C(C)N(C)C(=S)NC1c1cccc(O)c1 (centres undefined)
[1]
  GI50: 37900 nM (inactive)
[2]
  GI50: 24700 nM (inactive)
[3]
  GI50: 36600 nM (inactive)
[4]
  GI50: 71000 nM (inactive)
[5]
  GI50: 32900 nM (inactive)
[6]
  GI50: 56600 nM (inactive)
[7]
  GI50: 21400 nM (inactive)
[8]
  GI50: 31800 nM (inactive)
[9]
  GI50: 57300 nM (inactive)
[10]
  GI50: 24100 nM (inactive)
[11]
  GI50: 34000 nM (inactive)
[12]
  GI50: 25600 nM (inactive)
[13]
  GI50: 30300 nM
[14]
  GI50: 17800 nM (inactive)
[15]
  GI50: 77400 nM (inactive)
[16]
  GI50: 22900 nM (inactive)
[17]
  GI50: 38900 nM (inactive)
[18]
  GI50: 46700 nM (inactive)
[19]
  GI50: 21100 nM (inactive)
[20]
  GI50: 19700 nM (inactive)
[21]
  GI50: 29000 nM (inactive)
[22]
  GI50: 70300 nM (inactive)
[23]
  GI50: 29400 nM (inactive)
[24]
  GI50: 29600 nM (inactive)
[25]
  GI50: 46600 nM (inactive)
[26]
  GI50: 12500 nM (inactive)
[27]
  GI50: 14600 nM (inactive)
[28]
  GI50: 37800 nM (inactive)
[30]
  GI50: 47900 nM (inactive)
[31]
  GI50: 26400 nM (inactive)
[32]
  GI50: 38200 nM (inactive)
[33]
  GI50: 25200 nM (inactive)
[34]
  GI50: 18700 nM (inactive)
[35]
  GI50: 36100 nM (inactive)
[36]
  GI50: 36300 nM (inactive)
[37]
  GI50: 64100 nM (inactive)
[38]
  GI50: 32600 nM (inactive)
[39]
  GI50: 38500 nM (inactive)
[59]
  GI50: 18700 nM (inactive)
[40]
  GI50: 24300 nM (inactive)
[41]
  GI50: 62500 nM (inactive)
[42]
  GI50: 25900 nM (inactive)
[43]
  GI50: 53200 nM (inactive)
[44]
  GI50: 49100 nM (inactive)
[45]
  GI50: 34300 nM (inactive)
[46]
  GI50: 18500 nM (inactive)
[47]
  GI50: 36400 nM (inactive)
[48]
  GI50: 31800 nM (inactive)
[49]
  GI50: 54300 nM (inactive)
[50]
  GI50: 24700 nM (inactive)
[51]
  GI50: 16900 nM (inactive)
[52]
  GI50: 37500 nM (inactive)
[53]
  GI50: 18700 nM (inactive)
[54]
  GI50: > 100000 nM (inactive)
[55]
  GI50: 34800 nM (inactive)
[56]
  GI50: 43300 nM (inactive)
[57]
  GI50: 63700 nM (inactive)
[58]
  GI50: 81500 nM (inactive)

## CN(C)CCn1c(=O)c2ccc3c4c(nn3CCN(C)C)c3cc([N+](=O)[O-])ccc3n(c1=O)c24
[1]
  GI50: < 12.4 nM (active)
[2]
  GI50: 317 nM (active)
[3]
  GI50: 26.4 nM (active)
[4]
  GI50: 38.4 nM (active)
[5]
  GI50: 906 nM (active)
[6]
  GI50: 48.1 nM (active)
[7]
  GI50: < 12.5 nM (active)
[8]
  GI50: 54.8 nM (active)
[9]
  GI50: 50.8 nM (active)
[10]
  GI50: 115 nM (active)
[11]
  GI50: 41.1 nM (active)
[12]
  GI50: < 15.4 nM (active)
[13]
  GI50: 26.1 nM
[14]
  GI50: 90 nM (active)
[15]
  GI50: < 21.2 nM (active)
[16]
  GI50: 800 nM (active)
[17]
  GI50: < 11.2 nM (active)
[18]
  GI50: 144 nM (active)
[19]
  GI50: 70.8 nM (active)
[20]
  GI50: 39.4 nM (active)
[21]
  GI50: 26.3 nM (active)
[22]
  GI50: 44.7 nM (active)
[23]
  GI50: 222 nM (active)
[24]
  GI50: 66.7 nM (active)
[25]
  GI50: 92.9 nM (active)
[26]
  GI50: 67.5 nM (active)
[27]
  GI50: 72.4 nM (active)
[28]
  GI50: < 10 nM (active)
[29]
  GI50: 328 nM (active)
[30]
  GI50: 518 nM (active)
[31]
  GI50: 105 nM (active)
[32]
  GI50: < 12.8 nM (active)
[33]
  GI50: < 10 nM (active)
[34]
  GI50: 85.9 nM (active)
[35]
  GI50: 88.3 nM (active)
[36]
  GI50: 18.9 nM (active)
[37]
  GI50: < 25.3 nM (active)
[38]
  GI50: 49 nM (active)
[39]
  GI50: 64.1 nM (active)
[59]
  GI50: 19.4 nM (active)
[40]
  GI50: 120 nM (active)
[41]
  GI50: < 25.6 nM (active)
[42]
  GI50: 58.5 nM (active)
[43]
  GI50: 394 nM (active)
[44]
  GI50: 510 nM (active)
[45]
  GI50: 133 nM (active)
[46]
  GI50: 594 nM (active)
[47]
  GI50: 78.3 nM (active)
[48]
  GI50: < 20.7 nM (active)
[49]
  GI50: 43.8 nM (active)
[51]
  GI50: < 10 nM (active)
[52]
  GI50: < 13.4 nM (active)
[53]
  GI50: 249 nM (active)
[54]
  GI50: 212 nM (active)
[55]
  GI50: 28.1 nM (active)
[56]
  GI50: 617 nM (active)
[57]
  GI50: 337 nM (active)
[58]
  GI50: 66.1 nM (active)
